One molecule from ChEMBL document CHEMBL4190403, “Design, synthesis, and biological evaluation of pyrazole derivatives containing acetamide bond as potential BRAFV600E inhibitors” (Bioorg Med Chem Lett, 2018) can be followed below.

For assay [1], the system named is A-375. Nature of the assay: Induction of apoptosis in human A375 cells assessed as early apoptotic cells at 3 uM after 24 hrs by Annexin V-FITC/propidium iodide staining based flow cytometry (reference value: 1.22 to 1.64%). Format: functional.
Assay [2] deals with A-375. The assay can be described thus: Induction of apoptosis in human A375 cells assessed as late apoptotic cells at 10 uM after 24 hrs by Annexin V-FITC/propidium iodide staining based flow cytometry (reference value: 3.80 to 4.61%). The class given is functional. (A flow cytometer gives signals particle by particle.)
The test system of assay [3] is A-375. Nature of the assay: Induction of apoptosis in human A375 cells assessed as early apoptotic cells at 10 uM after 24 hrs by Annexin V-FITC/propidium iodide staining based flow cytometry (reference value: 1.22 to 1.64%). The class given is functional.
In assay [4] the test system is A-375. The assay can be described thus: Induction of apoptosis in human A375 cells assessed as early apoptotic cells at 3 uM after 12 hrs by Annexin V-FITC/propidium iodide staining based flow cytometry (reference value: 1.22 to 1.64%). The class given is functional.
The subject of assay [5] is A-375. Nature of the assay: Induction of apoptosis in human A375 cells assessed as necrotic cells at 3 uM after 36 hrs by Annexin V-FITC/propidium iodide staining based flow cytometry (reference value: 0.635 to 3.12%). Format: functional.
In assay [6] the test system is A-375. The assay can be described thus: Induction of apoptosis in human A375 cells assessed as late apoptotic cells at 3 uM after 36 hrs by Annexin V-FITC/propidium iodide staining based flow cytometry (reference value: 3.80 to 4.61%). The class given is functional.
The test system of assay [7] is A-375. Nature of the assay: Cell cycle arrest in human A375 cells assessed as accumulation at G2/M phase at 1 uM after 24 hrs by propidium iodide staining-based flow cytometry (reference value: 7.91 to 21.07%). Format: functional.
For assay [8], the system named is A-375. The assay can be described thus: Cell cycle arrest in human A375 cells assessed as accumulation at S phase at 10 uM after 24 hrs by propidium iodide staining-based flow cytometry (reference value: 20.08 to 31.09%). The class given is functional.
Assay [9] relates to A-375. The assay can be described thus: Cell cycle arrest in human A375 cells assessed as accumulation at G2/M phase at 10 uM after 24 hrs by propidium iodide staining-based flow cytometry (reference value: 7.91 to 21.07%). The class given is functional.
In assay [10] the test system is A-375. The assay can be described thus: Cell cycle arrest in human A375 cells assessed as accumulation at G2/M phase at 3 uM after 12 hrs by propidium iodide staining-based flow cytometry (reference value: 7.91 to 21.07%). The class given is functional.
The subject of assay [11] is A-375. The assay can be described thus: Induction of apoptosis in human A375 cells after 24 hrs by Annexin V-FITC/propidium iodide staining based flow cytometry. Format: functional, cell-based.

As for `COc1ccc(-n2cc(NC(=O)Cn3ccc(-c4cccc(Cl)c4)n3)cn2)cc1`, the Activity was 3.01 - 3.25% in the assay on A-375 [1]; 37.5% with A-375 [2]; 1.81% in the assay on A-375 [3]; 5.22% in the assay on A-375 [4]; 5.58% with A-375 [5]; 59.7% in the assay on A-375 [6]. Further, the Activity is 15.89% in the assay on A-375 [7]; 47.03% in the assay with A-375 [8]; 10.95% in the assay with A-375 [9]; 11.44% in the assay on A-375 [10]; “Dose-dependent effect” with A-375 [11].
